Data as given in publication PMC7035970 (Cell chemical biology, 2019).
Values after ≈ are worked out from the molar mass of the structure shown. Where two headings read alike, the source gives them in different places.

Key:
[1] = for T>MIC: single 25 mg/kg po dose
Mouse plasma stability = type: in vitro ADME; conditions: after 5 h incubation
in vivo = conditions: female, mouse; for Vd / clearance / half-life: iv, 5 mg/kg
M. tuberculosis H37Rv [2] = experiment: MIC, microplate-based Alamar Blue assay; type: cell-based, Mycobacterium tuberculosis
[3] = tested on: FAS-II pathway in M. tuberculosis H37Rv; type: cell-based, Mycobacterium tuberculosis
[4] = Dose proportionality and tolerability in mice; conditions: single dose 300 mg/kg
[5] = Kinetic aqueous solubility; type: physicochemical; conditions: universal aqueous buffer, pH 7.4
[6] = Vero cell-based cytotoxicity; conditions: African green monkey, Vero cells
M. tuberculosis H37Rv [7] = experiment: Griess assay for NO• quantification, H37Rv; type: cell-based, Mycobacterium tuberculosis; conditions: 20 μM compound, 5 d exposure, lower limit of quantification 0.80 μM NO2−
[8] = Human liver microsomal stability; type: in vitro ADME; conditions: liver microsomes, pH 7.4
M. tuberculosis H37Rv [9] = type: in vivo; conditions: 60 and 200 mg/kg oral daily, after 4 weeks of dosing, Balb/c mice
[10] = tested on: human cytochrome P450 isoforms; type: in vitro ADME
purified InhA = purified InhA (Mycobacterium tuberculosis, UniProt P9WGR1); experiment: biochemical; set-up: species or system M. tuberculosis
P aeruginosa = experiment: MIC versus ESKAPE bacteria: P aeruginosa; type: cell-based
E. cloacae = experiment: MIC versus ESKAPE bacteria: E. cloacae; type: cell-based; conditions: Enterobacter cloacae
E. faecium = experiment: MIC versus ESKAPE bacteria: E. faecium; type: cell-based; conditions: Enterococcus faecium
[11] = tested on: 100 day-old cultures of M. tuberculosis H37Rv; type: cell-based, Mycobacterium tuberculosis
M. tuberculosis fgd1∷tn = experiment: Griess assay for NO• quantification, fgd1∷tn; type: cell-based, Mycobacterium tuberculosis; conditions: 20 μM compound, lower limit of quantification 0.80 μM NO2−
M. tuberculosis H37Rv [12] = conditions: cited from earlier work
[13] = tested on: M. tuberculosis strain fgd1∷tn; experiment: MIC versus F420H2 deficient strain fgd1∷tn; type: cell-based, Mycobacterium tuberculosis
M. tuberculosis = experiment: Minimum bactericidal concentration; type: cell-based, Mycobacterium tuberculosis
[14] = Mouse liver microsomal stability; type: in vitro ADME; conditions: liver microsomes, pH 7.4
[15] = ref Inoyama et al., 2018; cited from earlier work
[16] = Chemical stability, degradation to aminotriazine; conditions: C-N bond cleavage to aminotriazine JSF-3226, light-dependent
[17] = Mycobacterium tuberculosis, H37RV

Sequence of purified InhA (P9WGR1 whole entry, looked up): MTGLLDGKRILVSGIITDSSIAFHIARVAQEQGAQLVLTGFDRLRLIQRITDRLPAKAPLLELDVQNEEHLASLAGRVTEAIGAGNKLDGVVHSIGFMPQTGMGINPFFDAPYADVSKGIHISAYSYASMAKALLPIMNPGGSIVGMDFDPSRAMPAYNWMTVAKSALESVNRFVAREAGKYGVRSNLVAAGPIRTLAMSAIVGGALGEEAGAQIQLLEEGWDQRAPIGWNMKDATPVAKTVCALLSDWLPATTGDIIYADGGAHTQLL

SMILES | T>MIC ([1]; mouse) [h] | Kp at 5 h (in vivo; 25 mg/kg) | Vd (in vivo) [L/kg] | clearance (in vivo) [mL/min/kg] | half-life (in vivo) [min] | AUC(0-t) (in vivo; po, 25 mg/kg) [ng·h/mL] | Cmax (in vivo; po, 25 mg/kg) [ng/mL] | bioavailability (in vivo; po, 25 mg/kg) [%] | MIC (M. tuberculosis H37Rv [2]; [17]) [µM] | FAMEs and MAMEs profile by TLC [3] | solubility at 4 h [5] [µM] | reduction in colony-forming units (CFUs) [11] | half-life [14] [min] | other results
O=[N+]([O-])c1ccc(/C=N/Nc2nc(N3CCC3)nc(N3CCOCC3)n2)o1 [JSF-2619, (E)-4-(4-(azetidin-1-yl)-6-(2-((5-nitrofuran-2-yl)methylene)hydrazineyl)-1,3,5-triazin-2-yl)morpholine] | 3 to 5 | 0.23 | 1.91 | 61.7 | 21.6 | 7640 | 4200 | 49.2 |  |  |  |  |  | stability in mouse plasma, compound remaining (Mouse plasma stability): satisfactory stabilities in mouse plasma
NNC(=O)c1ccncc1 [INH, reference compound] |  |  |  |  |  |  |  |  | 0.16 (≈ 0.0219 µg/mL) | reduction of mycolic acids |  |  |  | 
O=[N+]([O-])c1ccc(/C=N/Nc2nc(Nc3ccccc3)nc(N3CCOCC3)n2)o1 [JSF-2513, (E)-4-morpholino-6-(2-((5-nitrofuran-2-yl)methylene)hydrazineyl)-N-phenyl-1,3,5-triazin-2-amine] | 8 to 24 |  | 1.38 | 37.2 | 25.8 | 12000 | 1710 | ≥ 99 | 0.63 (≈ 0.259 µg/mL) | depletion of MAMEs and accumulation of precursor FAMEs | 0.853 (≈ 0.35 µg/mL) | ca. 7 log10 |  | tolerability in mice [4]: lethargy; CC50 [6]: 3.9 µM; NO• release quantified as nitrite (M. tuberculosis H37Rv [7]): in a lesser amount than JSF-2019; half-life [8]: 61.7 min; microsomal CLint [8]: 11.2 µL/min/mg; M. tuberculosis CFUs in mouse lungs and spleen versus vehicle (M. tuberculosis H37Rv [9]): failed to demonstrate a reduction in M. tuberculosis CFUs; level in the mouse lungs ([1]; 5 h post a single 25 mg/kg dose, limit of quantification 25 ng/mL): near the limit of quantification; Clung/Cplasma at 5 h ([1]; mouse): BLQ; inhibition of human cytochrome P450 isoforms [10]: did not significantly inhibit; stability in mouse plasma, compound remaining (Mouse plasma stability): satisfactory stabilities in mouse plasma; IC50 (purified InhA; InhA IC50): > 150 µM; MIC (P aeruginosa): > 120 µM; MIC (E. cloacae): > 120 µM; MIC (E. faecium): 15 µM (≈ 6.16 µg/mL); NO• release quantified as nitrite (M. tuberculosis fgd1∷tn): abolished
O=[N+]([O-])c1ccc(/C=N/Nc2nc(Nc3ccccc3)nc(Nc3ccccc3)n2)o1 [JSF-2019, (E)-6-(2-((5-nitrofuran-2-yl)methylene)hydrazinyl)-N2,N4-diphenyl-1,3,5-triazine-2,4-diamine] | 5.0 | 2.6 |  |  |  | 1150 | 317 |  | 0.078 (≈ 0.0325 µg/mL) |  |  | ~4 log10 | 63.6 | MIC (minimum concentration to inhibit 90% of bacterial growth) (M. tuberculosis H37Rv [12]; ref Ekins et al., 2013): 0.15 µM; NO• release quantified as nitrite (M. tuberculosis H37Rv [7]): smaller yet quantifiable NO• release compared to pretomanid; FAMEs and MAMEs profile by TLC ([3]; […], INH and pretomanid at 10x MIC, JSF-2019 and JSF-2513 1 – 40x MIC): accumulation of FAMEs and decrease of MAMEs; MIC shift / loss of susceptibility, fgd1∷tn versus H37Rv [13]: 17 fold; IC50 (purified InhA; InhA IC50, in the presence of 1% CMC Tween-20): 24 ± 3.6 µM; IC50 (purified InhA; InhA IC50, without added detergent, substrate 2-dodecenoyl-CoA, NADH): 20 ± 2.4 µM; MBC (lowest concentration to reduce the bacterial population by 2 log10) (M. tuberculosis): 600 – 1200 nM; aqueous solubility S [15]: < 0.060 µM; AUC (in vivo; po, 25 mg/kg): 1150 ng·h/mL; NO• release quantified as nitrite (M. tuberculosis fgd1∷tn): not discernible
FC(F)(F)Oc1ccc(CO[C@@H]2COc3nccn3C2)cc1 [des-nitro pretomanid, reference compound] |  |  |  |  |  |  |  |  |  |  |  |  |  | whole-cell efficacy (M. tuberculosis H37Rv [12]; ref Singh et al., 2008): lack quantifiable whole-cell efficacy
O=[N+]([O-])c1ccc(/C=N/Nc2nc(N3CCOCC3)nc(N3CCOCC3)n2)o1 [JSF-2189, (E)-4,4'-(6-(2-((5-nitrofuran-2-yl)methylene)hydrazineyl)-1,3,5-triazine-2,4-diyl)dimorpholine] |  |  |  |  |  |  |  |  | 7.8 (≈ 3.15 µg/mL) |  | 20.2 (≈ 8.17 µg/mL) |  | 68 | 
O=[N+]([O-])c1cn2c(n1)OC[C@@H](OCc1ccc(OC(F)(F)F)cc1)C2 [Pretomanid, reference compound] |  |  |  |  |  |  |  |  | 0.039 (≈ 0.014 µg/mL) | decrease of MAMEs |  | 6 log10 |  | MIC (M. tuberculosis H37Rv [2]; H37Rv): 0.078 µM (≈ 0.028 µg/mL)
CC1(Nc2nc(N/N=C/c3ccc([N+](=O)[O-])o3)nc(N3CCOCC3)n2)CC1 [JSF-2625, (E)-N-(1-methylcyclopropyl)-4-morpholino-6-(2-((5-nitrofuran-2-yl)methylene)hydrazineyl)-1,3,5-triazin-2-amine] | 1 to 3 | 0.3 | 1.44 | 88 | 11.4 | 538 | 266 | 11.4 | 0.25 (≈ 0.0971 µg/mL) |  | 8.71 (≈ 3.38 µg/mL) |  | 56.4 | stability in mouse plasma, aqueous DMSO, or aqueous CH3CN [16]: found to degrade
